Test results from patent US8344029B2, “Substituted propanamide derivative and pharmaceutical composition containing the same” (Daiichi Sankyo Company, Limited, priority 2005, dated 2013).

The compounds below were run on immature rats (4-week old male Wistar rats) (assay: Evaluation of blood calcium concentration-decreasing activity in immature rats). Settings: Rattus norvegicus; 6 hours after oral administration of 10 mg/kg, fasted 4-week old male Wistar rats, vs normal control group; read-out: serum calcium concentration-decreasing rate.
Format: in vivo
Procedure: The blood calcium concentration in a living body is strictly controlled and constantly maintained by intestinal absorption and urinary excretion and release (bone resorption) and adhesion (bone formation) in bone tissues. […] The bone resorption-suppressing activity of compounds according to the present invention was evaluated by observing decreases in blood calcium concentration in immature rats administered with the compounds as an index of the activity.
The test was conducted using 4-week old male Wistar rats fasted for 12 to 24 hours. Each compound to be tested was suspended in 0.5% methyl cellulose (MC). The suspension was orally administered to the rats at a dose of 5 mL/kg. Rats of a normal control group were similarly administered with 0.5% MC alone. Then, blood was drawn from rat jugular vein under ether anesthesia 6 hours after the administration of each test compound or 0.5% MC. The blood was immediately centrifuged (10000 rpm/revolutions per minute, 5 minutes) at room temperature to separate serum. The calcium concentration of each serum was measured by an autoanalyzer (JEOL, JCA-BM2250). Five rats were used for each test group.
The evaluation was conducted by a comparative test with the normal control group based on the serum calcium concentration-decreasing rate (%) calculated according to the following equation: Serum calcium concentration-decreasing rate(%)=(([serum calcium concentration in normal control group]−[serum calcium concentration in test compound administration group]/[serum calcium concentration in normal control group])×100.
In the case of `O=C(NC(Cc1ccc(OC(F)(F)F)cc1)C(=O)NCCO)c1ccc(OCCCC2CC2)cc1` (stereo not drawn) [Example 25, 4-(3-Cyclopropylpropoxy)-N-{2-[(2-hydroxyethyl)amino]-2-oxo-1-[4-(trifluoromethoxy)benzyl]ethyl}benzamide], the inhibition in vivo at 10 mg/kg is reported as at least 10%. `O=C(NC(Cc1ccc(OC(F)(F)F)cc1)C(=O)NCCO)c1ccc(OCC2CC2(F)F)cc1` (stereo not drawn) [Example 40, 4-[(2,2-Difluorocyclopropyl)methoxy]-N-{2-[(2-hydroxyethyl)amino]-2-oxo-1-[4-(trifluoromethoxy)benzyl]ethyl}benzamide] gave an inhibition in vivo at 10 mg/kg of at least 10%. `O=C(NC(Cc1ccc(OC(F)F)cc1)C(=O)NCCO)c1ccc(OCCC2CC2)cc1` (stereo not drawn) [Example 3, 4-(2-Cyclopropylethoxy)-N-{1-[4-(difluoromethoxy)benzyl]-2-[(2-hydroxyethyl)amino]-2-oxoethyl}benzamide] was tested, and the inhibition in vivo at 10 mg/kg was at least 10%. `O=C(NC(Cc1ccc(C2CC2)cc1)C(=O)NCCO)c1ccc(OCC2CC2)cc1` (stereo not drawn) [Example 23, N-{1-(4-Cyclopropylbenzyl)-2-[(2-hydroxyethyl)amino]-2-oxoethyl}-4-(cyclopropylmethoxy)benzamide] gave an inhibition in vivo at 10 mg/kg of at least 10%. For `O=C(NC(Cc1ccc(OC(F)(F)F)cc1)C(=O)NCCO)c1ccc(OCCC(F)(F)F)cc1` (stereo not drawn) [Example 34, N-{2-[(2-Hydroxyethyl)amino]-2-oxo-1-[4-(trifluoromethoxy)benzyl]ethyl}-4-(3,3,3-trifluoropropoxy)benzamide], the inhibition in vivo at 10 mg/kg was at least 10%. `O=C(NC(Cc1ccc(C(F)(F)F)cc1)C(=O)NCCO)c1ccc(OCC2CC2)cc1` (stereo not drawn) [Example 22, 4-(Cyclopropylmethoxy)-N-{2-[(2-hydroxyethyl)amino]-2-oxo-1-[4-(trifluoromethyl)benzyl]ethyl}benzamide] showed an inhibition in vivo at 10 mg/kg of at least 10%. With `O=C(NC(Cc1ccc(OC(F)F)cc1)C(=O)NCCO)c1ccc(OCC2CC2)cc1` (stereo not drawn) [Example 18, 4-(Cyclopropylmethoxy)-N-{1-[4-(difluoromethoxy)benzyl]-2-[(2-hydroxyethyl)amino]-2-oxoethyl}benzamide] the inhibition in vivo at 10 mg/kg was at least 10%. `O=C(NC(Cc1ccc(OC(F)(F)F)cc1)C(=O)NCCO)c1ccc(OCCC2CC2)cc1` (stereo not drawn) [Example 4, 4-(2-Cyclopropylethoxy)-N-{2-[(2-hydroxyethyl)amino]-2-oxo-1-[4-(trifluoromethoxy)benzyl]ethyl}benzamide] showed an inhibition in vivo at 10 mg/kg of at least 10%. Compound `O=C(NC(Cc1ccc(OC(F)(F)F)cc1)C(=O)NCCO)c1ccc(Oc2ccc(C(F)(F)F)cc2)cc1` (stereo not drawn) [Example 42, N-{2-[(2-Hydroxyethyl)amino]-2-oxo-1-[4-(trifluoromethoxy)benzyl]ethyl}-4-[4-(trifluoromethyl)phenoxy]benzamide] has an inhibition in vivo at 10 mg/kg of at least 10%. Compound `O=C(NC(Cc1ccc(C(F)(F)F)cc1)C(=O)NCCO)c1ccc(OCCC2CC2)cc1` (stereo not drawn) [Example 7, 4-(2-Cyclopropylethoxy)-N-{2-[(2-hydroxyethyl)amino]-2-oxo-1-[4-(trifluoromethyl)benzyl]ethyl}benzamide] has an inhibition in vivo at 10 mg/kg of at least 10%. `O=C(NC(Cc1ccc(OC2CC2)cc1)C(=O)NCCO)c1ccc(OCC2CC2)cc1` (stereo not drawn) [Example 20, 4-(Cyclopropylmethoxy)-N-{1-[4-(cyclopropyloxy)benzyl]-2-[(2-hydroxyethyl)amino]-2-oxoethyl}benzamide] showed an inhibition in vivo at 10 mg/kg of at least 10%. In the case of `O=C(NC(Cc1ccc(OC(F)(F)F)cc1)C(=O)NCCO)c1ccc(OCC2CC2)cc1` (stereo not drawn) [Example 19, 4-(Cyclopropylmethoxy)-N-{2-[(2-hydroxyethyl)amino]-2-oxo-1-[4-(trifluoromethoxy)benzyl]ethyl}benzamide], the inhibition in vivo at 10 mg/kg is reported as at least 10%. Work on `O=C(NC(Cc1ccc(OC(F)(F)F)cc1)C(=O)NCCO)c1ccc(OCC(F)F)cc1` (stereo not drawn) [Example 31, 4-(2,2-Difluoroethoxy)-N-{2-[(2-hydroxyethyl)amino]-2-oxo-1-[4-(trifluoromethoxy)benzyl]ethyl}benzamide] yielded an inhibition in vivo at 10 mg/kg of at least 10%.

Each compound was assayed on adjuvant arthritis model rats (8-week old female Lewis rats) (assay: Bone density decrease-suppressing activity in adjuvant arthritis model rats). Settings: dose 3 mg/kg, oral once a day for 7 days from day 14 after adjuvant injection; femur bone density on the 21st day.
Format: in vivo, rat
Procedure: In rheumatoid arthritis, not only swelling and pain caused by arthritis but also systemic bone mass decrease and articular destruction caused by a significant increase in bone resorption are observed.
The test was conducted using 8-week old female Lewis rats. Mycobacterium butyricum cells killed by heat were ground in an agate mortar, suspended in liquid paraffin sterilized by dry heat to a concentration of 2 mg/mL, and treated with ultrasonic to prepare an adjuvant. Under ether anesthesia, rats in a control group other than a normal control group and rats in test compound administration group were intradermally injected with 0.05 mL of the adjuvant each time (0.1 mL/rat in total) at two portions of the base of the tail. Starting from 14 days after the injection of the adjuvant, each rat was orally administered with 5 mL/kg of a test compound suspended in 0.5% MC once a day for 7 days. The rats of the control group were similarly administered with 0.5% MC alone. On the 21st day after the adjuvant injection, the femur was biopsied. The femur, after removing soft tissues, was sufficiently fixed, dehydrated, and dried with ethanol. The bone density of the femur was measured with a bone density analyzer (Aloka, DOS-600 EX-IIIR). Five rats were used for each group.
The evaluation was conducted by comparative tests with the normal control group and the control group based on the bone density decrease-suppressing rate (%) calculated according to the following equation: Bone density decrease-suppressing rate(%)=((1−([femur bone density in normal control group]−[femur bone density in test compound administration group]))/([femur bone density in normal control group]−[femur bone density in control group]))×100
With `O=C(N[C@@H](Cc1ccc(OC(F)(F)F)cc1)C(=O)NCCO)c1ccc(OCC2CC2)cc1` [Example 51, 4-(Cyclopropylmethoxy)-N-{(1S)-2-[(2-hydroxyethyl)amino]-2-oxo-1-[4-(trifluoromethoxy)benzyl]ethyl}benzamide] the “Bone density decrease-suppressing rate (%)” value was 85%. In the case of `O=C(N[C@@H](Cc1ccc(OC(F)(F)F)cc1)C(=O)NCCO)c1ccc(Oc2ccc(C(F)(F)F)cc2)cc1` [Example 64, N-{(1S)-2-[(2-Hydroxyethyl)amino]-2-oxo-1-[4-(trifluoromethoxy)benzyl]ethyl}-4-[4-(trifluoromethyl)phenoxy]benzamide], the “Bone density decrease-suppressing rate (%)” value is reported as 77%. For `O=C(N[C@@H](Cc1ccc(OC(F)F)cc1)C(=O)NCCO)c1ccc(OCCC(F)(F)F)cc1` [Example 59, N-{(1S)-1-[4-(Difluoromethoxy)benzyl]-2-[(2-hydroxyethyl)amino]-2-oxoethyl}-4-(3,3,3-trifluoropropoxy)benzamide], the “Bone density decrease-suppressing rate (%)” value was 92%. For `O=C(N[C@@H](Cc1ccc(C(F)(F)F)cc1)C(=O)NCCO)c1ccc(OCCC(F)(F)F)cc1` [Example 61, N-{(1S)-2-[(2-Hydroxyethyl)amino]-2-oxo-1-[4-(trifluoromethyl)benzyl]ethyl}-4-(3,3,3-trifluoropropoxy)benzamide], the “Bone density decrease-suppressing rate (%)” value was 75%. For `O=C(N[C@@H](Cc1ccc(OC(F)(F)F)cc1)C(=O)NCCO)c1ccc(OCCC(F)(F)F)cc1` [Example 57, N-{(1S)-2-[(2-Hydroxyethyl)amino]-2-oxo-1-[4-(trifluoromethoxy)benzyl]ethyl}-4-(3,3,3-trifluoropropoxy)benzamide], the “Bone density decrease-suppressing rate (%)” value was 86%.
